{"source": "paper PMC6287599", "about": "“2,6-Bis(2-Benzimidazolyl)Pyridine (BBP) Is a Potent and Selective Inhibitor of Small Conductance Calcium-Activated Potassium (SK) Channels” (Frontiers in Pharmacology, 2018)", "key": {"[1]": {"target": "T1, hIK (Homo sapiens, UniProt O15554)", "T1 construct": "expressed in transfected cells; host or cells: HEK293 (transient, co-transfected with eGFP)", "test": "Manual whole cell patch clamp, HEK293 transiently transfected with hIK", "format": "cell-based", "conditions": "BBP 1 μM, n = 6", "description": "HEK293 cells were transiently co-transfected with the plasmid of interest (hBK, hSK1, hSK2, hSK3 WT, rSK3 H491N, or hIK) and eGFP using standard Lipofectamine™ 2000 (Thermo Fisher Scientific, Waltham, Massachussets, USA) transfection protocols. After transfection, cells were incubated overnight before the experiments.\nManual patch clamp experiments were performed at room temperature in the whole cell configuration with a HEKA EPC9 amplifier and the Patchmaster software (HEKA Elektronik, Ludwigshafen, Germany). All currents were elicited every 2 s using an incremental 200 ms voltage-ramp protocol starting at −80 mV and finishing at +80 mV from a holding potential of 0 mV. Borosilicate glass pipettes were pulled with a horizontal puller (DMZ Universal Puller, Zeitz Instruments, Martinsried, Germany) with resistances 2.5–3 MΩ. Currents were measured using the same solutions as the ones used for automated patch clamp, with symmetrical potassium concentrations and a free intracellular calcium concentration of 400 nM. […] On the day of the experiment, cells were rinsed with magnesium-free PBS and detached with Detachin™ (Amsbio, Abingdon, United Kingdom) before being plated on 0.5 mm diameter coverslips. Only fluorescent cells were considered for patch clamp experiments.\nTo do so, we transiently transfected HEK293 WT cells with a plasmid containing one of the human SK channel subtypes, the big conductance calcium and voltage-activated potassium (BK) channel or the intermediate conductance calcium-activated potassium (IK) channel. […] Finally, a positive control was used to inhibit the remaining current and quantify the total effect of BBP. […]"}, "[2]": {"target": "T2, Kir3.1+Kir3.4 (Homo sapiens, UniProt P48544+P48549)", "T2 sequence (P48549 1-501)": "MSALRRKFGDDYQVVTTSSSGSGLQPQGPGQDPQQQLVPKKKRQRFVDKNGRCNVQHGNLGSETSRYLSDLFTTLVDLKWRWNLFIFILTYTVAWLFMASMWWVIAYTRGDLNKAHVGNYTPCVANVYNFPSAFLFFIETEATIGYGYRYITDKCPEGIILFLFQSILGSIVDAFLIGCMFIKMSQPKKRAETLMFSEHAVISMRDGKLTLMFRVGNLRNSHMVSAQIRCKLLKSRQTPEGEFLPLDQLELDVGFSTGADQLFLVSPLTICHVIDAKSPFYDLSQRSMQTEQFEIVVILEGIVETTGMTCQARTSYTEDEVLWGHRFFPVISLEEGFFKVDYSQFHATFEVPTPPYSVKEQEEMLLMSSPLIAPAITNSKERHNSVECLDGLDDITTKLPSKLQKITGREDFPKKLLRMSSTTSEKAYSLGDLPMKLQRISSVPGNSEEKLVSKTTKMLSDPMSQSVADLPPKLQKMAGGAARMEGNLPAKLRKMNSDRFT", "T2 sequence (P48544 1-419)": "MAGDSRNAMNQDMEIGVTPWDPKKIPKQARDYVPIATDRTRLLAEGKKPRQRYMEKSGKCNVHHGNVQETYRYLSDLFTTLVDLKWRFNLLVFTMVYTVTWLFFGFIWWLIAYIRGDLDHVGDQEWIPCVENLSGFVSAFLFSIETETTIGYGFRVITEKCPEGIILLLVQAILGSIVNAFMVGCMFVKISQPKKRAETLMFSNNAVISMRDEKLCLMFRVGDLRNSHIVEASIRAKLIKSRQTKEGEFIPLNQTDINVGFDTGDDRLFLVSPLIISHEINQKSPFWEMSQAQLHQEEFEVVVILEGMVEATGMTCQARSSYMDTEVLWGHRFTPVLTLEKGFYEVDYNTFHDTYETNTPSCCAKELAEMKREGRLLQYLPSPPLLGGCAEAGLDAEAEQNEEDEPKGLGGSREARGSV", "test": "Two-electrode voltage clamp in Xenopus laevis oocytes, Kir3.1+Kir3.4", "format": "cell-based", "conditions": "BBP 10 μM, TEVC, n = 5", "protocol": "cRNA was prepared from linearized plasmids using the mMESSAGE mMACHINE T7 kit (Ambion, USA) and quantified by UV spectroscopy (NanoDrop, Thermo Scientific, Wilmington, USA). Xenopus laevis oocytes were acquired from EcoCyte Bioscience (Castrop-Rauxel, Germany). Oocytes were injected with 50 nL cRNA and currents were recorded after 2 days of incubation at 19°C. Currents were recorded at a sampling rate of 10 kHz using a TEVC amplifier (Dagan CA-1B; IL, USA), and borosilicate glass recording electrodes (Module Ohm, Herlev, Denmark), made with a DMZ Universal Puller (Zeitz Instruments, Martinsried, Germany) with a resistance of 0.5–1 MΩ when filled with 2 M KCl. Oocytes were superfused with Kulori (pH 7.4) solution containing NaCl 90 mM, KCl 4 mM, MgCl2 1 mM, CaCl2 1 mM, 4-(2-hydroxyethyl)-1-piperazineethanesulfonic acid 5 mM, and currents were elicited with the voltage protocols previously indicated (Skarsfeldt et al., [2016]), from a holding potential of −80 mV. […]\nTo assess the effect of BBP on other calcium-activated potassium channels (hBK, hSK3 WT, rSK3 H491N, and hIK), each individual current was first normalized to its cell size using membrane's capacitance (pA/pF) before statistical analysis. […] Statistical significance between saline and the effect of both BBP and the corresponding reference compound was determined for each channel using one-way ANOVA analysis. […]"}}, "note": "“Also recorded” adds a separate entry of the source."}
{"smiles": "c1cc(-c2nc3ccccc3[nH]2)nc(-c2nc3ccccc3[nH]2)c1", "note": "[BBP, 2,6-Bis(2-benzimidazolyl)pyridine]", "values": [{"measurement": "Effect on hIK current", "setting": "[1]", "result": "did not have any effect; also recorded: remained unaffected; also recorded: not affected"}, {"measurement": "Effect on Kir3.1+Kir3.4 current", "setting": "[2]", "result": "did not have any effect; also recorded: did not significantly affect"}]}
